In PubChem BioAssay (NCI):
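Exposure lasted 48 hours, with cells grown in 96-well plates and compounds tested at five concentrations. TGI marks complete inhibition of growth.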

Assays:
Test in all cases: NCI tumour cell line growth inhibition, 48 h
[1] = test system: 786-0 renal
[2] = test system: A498 renal
[3] = test system: A549 NSCLC
[4] = test system: ACHN renal
[5] = test system: CAKI-1 renal
[6] = test system: CCRF-CEM leukemia
[7] = test system: COLO 205 colon
[8] = test system: DU-145 prostate
[9] = test system: EKVX NSCLC
[10] = test system: HCC-2998 colon
[11] = test system: HCT-116 colon
[12] = test system: HL-60(TB) leukemia
[13] = test system: HOP-62 NSCLC
[14] = test system: HOP-92 NSCLC
[15] = test system: HS 578T breast
[16] = test system: HT29 colon
[17] = test system: IGROV1 ovarian
[18] = test system: K-562 leukemia
[19] = test system: KM12 colon
[20] = test system: LOX IMVI melanoma
[21] = test system: M14 melanoma
[22] = test system: MALME-3M melanoma
[23] = test system: MCF7 breast
[24] = test system: MDA-MB-231 breast
[25] = test system: MDA-MB-435
[26] = test system: MDA-N
[27] = test system: MOLT-4 leukemia
[28] = test system: NCI-H226 lung
[29] = test system: NCI-H23 lung
[30] = test system: NCI-H460 lung
[31] = test system: NCI-H522 lung
[32] = test system: NCI/ADR-RES ovarian
[33] = test system: OVCAR-3 ovarian
[34] = test system: OVCAR-4 ovarian
[35] = test system: OVCAR-5 ovarian
[36] = test system: OVCAR-8 ovarian
[37] = test system: PC-3 prostate
[38] = test system: RPMI-8226 leukemia
[39] = test system: RXF 393 renal
[40] = test system: SF-268 CNS
[41] = test system: SF-295 CNS
[42] = test system: SF-539 CNS
[43] = test system: SK-MEL-28 melanoma
[44] = test system: SK-MEL-5 melanoma
[45] = test system: SK-OV-3 ovarian
[46] = test system: SN12C renal
[47] = test system: SNB-19 CNS
[48] = test system: SNB-75 CNS
[49] = test system: SR leukemia
[50] = test system: SW-620 colon
[51] = test system: T-47D breast
[52] = test system: TK-10 renal
[53] = test system: UACC-257 melanoma
[54] = test system: UACC-62 melanoma
[55] = test system: UO-31 renal
[56] = test system: HCT-15 colon
[57] = test system: SK-MEL-2 melanoma
[58] = test system: U251 CNS

With `CC(CO)CCNc1ncnc2c1ncn2CCC#N` (stereo unspecified) as the compound, how does the TGI [1] read?
Its TGI is over 100 µM.

And the TGI [2]?
Its TGI is over 100 µM.

And the TGI [3]?
Its TGI is over 100 µM.

And the TGI [4]?
Its TGI is over 100 µM.

What about the TGI [5] of the same compound?
Its TGI is over 100 µM.

And the TGI [6]?
The TGI was over 100 µM.

And the TGI [7]?
Its TGI is over 100 µM.

And the TGI [8]?
Its TGI is over 100 µM.

What about the TGI [9] of the same compound?
Its TGI is over 100 µM.

And the TGI [10]?
Its TGI is over 100 µM.

And the TGI [11]?
Its TGI is over 100 µM.

And the TGI [12]?
The TGI was over 100 µM.

What about the TGI [13] of the same compound?
Its TGI is over 100 µM.

And the TGI [14]?
Its TGI is over 100 µM.

What about the TGI [15] of the same compound?
The TGI was over 100 µM.

What about the TGI [16] of the same compound?
The TGI was over 100 µM.

What about the TGI [17] of the same compound?
Its TGI is over 100 µM.

What about the TGI [18] of the same compound?
Its TGI is over 100 µM.

And the TGI [19]?
The TGI was over 100 µM.

What about the TGI [20] of the same compound?
Its TGI is over 100 µM.

What about the TGI [21] of the same compound?
The TGI was over 100 µM.

What about the TGI [22] of the same compound?
The TGI was over 100 µM.

What about the TGI [23] of the same compound?
The TGI was over 100 µM.

What about the TGI [24] of the same compound?
Its TGI is over 100 µM.

What about the TGI [25] of the same compound?
Its TGI is over 100 µM.

What about the TGI [26] of the same compound?
The TGI was over 100 µM.

What about the TGI [27] of the same compound?
The TGI was over 100 µM.

What about the TGI [28] of the same compound?
The TGI was over 100 µM.

What about the TGI [29] of the same compound?
Its TGI is over 100 µM.

And the TGI [30]?
The TGI was over 100 µM.

And the TGI [31]?
The TGI was over 100 µM.

And the TGI [32]?
The TGI was over 100 µM.

And the TGI [33]?
Its TGI is over 100 µM.

What about the TGI [34] of the same compound?
Its TGI is over 100 µM.

What about the TGI [35] of the same compound?
Its TGI is over 100 µM.

And the TGI [36]?
The TGI was over 100 µM.

What about the TGI [37] of the same compound?
The TGI was over 100 µM.

And the TGI [38]?
Its TGI is over 100 µM.

What about the TGI [39] of the same compound?
Its TGI is over 100 µM.

And the TGI [40]?
The TGI was over 100 µM.

And the TGI [41]?
The TGI was over 100 µM.

What about the TGI [42] of the same compound?
Its TGI is over 100 µM.

What about the TGI [43] of the same compound?
Its TGI is over 100 µM.

And the TGI [44]?
Its TGI is over 100 µM.

And the TGI [45]?
Its TGI is over 100 µM.

What about the TGI [46] of the same compound?
Its TGI is over 100 µM.

And the TGI [47]?
The TGI was over 100 µM.

And the TGI [48]?
Its TGI is over 100 µM.

And the TGI [49]?
Its TGI is over 100 µM.

What about the TGI [50] of the same compound?
The TGI was over 100 µM.

What about the TGI [51] of the same compound?
Its TGI is over 100 µM.

And the TGI [52]?
The TGI was over 100 µM.

And the TGI [53]?
The TGI was over 100 µM.

And the TGI [54]?
Its TGI is over 100 µM.

What about the TGI [55] of the same compound?
The TGI was over 100 µM.

With `CC1=NN(c2cccc(Cl)c2)C2(C1=Cc1ccccc1)C(Cl)C(=O)N2c1nc2ccccc2s1` (stereo unspecified) as the compound, how does the TGI [1] read?
Its TGI is 32.9 µM.

What about the TGI [2] of the same compound?
The TGI was 42.8 µM.

What about the TGI [4] of the same compound?
Its TGI is 42.4 µM.

And the TGI [5]?
The TGI was 41.9 µM.

And the TGI [6]?
Its TGI is over 100 µM.

What about the TGI [8] of the same compound?
Its TGI is 33.2 µM.

What about the TGI [9] of the same compound?
Its TGI is over 100 µM.

And the TGI [10]?
The TGI was 31.1 µM.

And the TGI [11]?
Its TGI is 30.3 µM.

And the TGI [56]?
Its TGI is 31.5 µM.

And the TGI [12]?
The TGI was 66.4 µM.

What about the TGI [13] of the same compound?
The TGI was 45.3 µM.

And the TGI [14]?
Its TGI is 31.6 µM.

And the TGI [15]?
The TGI was over 100 µM.

And the TGI [16]?
The TGI was 40.5 µM.

And the TGI [17]?
Its TGI is 43.7 µM.

And the TGI [18]?
Its TGI is over 100 µM.

What about the TGI [19] of the same compound?
Its TGI is 33.7 µM.

What about the TGI [20] of the same compound?
Its TGI is 64 µM.

What about the TGI [21] of the same compound?
The TGI was 46.2 µM.

What about the TGI [23] of the same compound?
Its TGI is 70.6 µM.

And the TGI [24]?
Its TGI is 51.3 µM.

And the TGI [25]?
The TGI was 41.1 µM.

What about the TGI [26] of the same compound?
Its TGI is 41.3 µM.

And the TGI [27]?
Its TGI is 85.9 µM.

And the TGI [28]?
The TGI was 67.8 µM.

What about the TGI [29] of the same compound?
The TGI was 31.5 µM.

And the TGI [30]?
The TGI was 28.5 µM.

What about the TGI [31] of the same compound?
Its TGI is 36 µM.

What about the TGI [32] of the same compound?
Its TGI is 48.7 µM.

And the TGI [33]?
Its TGI is 40.6 µM.

And the TGI [34]?
The TGI was 64.7 µM.

And the TGI [35]?
The TGI was 55.8 µM.

And the TGI [36]?
Its TGI is over 100 µM.

And the TGI [37]?
The TGI was 37.6 µM.

What about the TGI [38] of the same compound?
Its TGI is over 100 µM.

And the TGI [39]?
The TGI was 28 µM.

What about the TGI [40] of the same compound?
Its TGI is 97.6 µM.

And the TGI [41]?
Its TGI is 52.3 µM.

What about the TGI [42] of the same compound?
The TGI was over 100 µM.

What about the TGI [57] of the same compound?
The TGI was 38.5 µM.

And the TGI [43]?
Its TGI is over 100 µM.

And the TGI [44]?
Its TGI is 32.5 µM.

What about the TGI [45] of the same compound?
The TGI was 52.3 µM.

And the TGI [49]?
The TGI was 67.3 µM.

What about the TGI [50] of the same compound?
Its TGI is 42.4 µM.

What about the TGI [51] of the same compound?
Its TGI is 59.9 µM.

And the TGI [52]?
The TGI was over 100 µM.

What about the TGI [58] of the same compound?
The TGI was 29.7 µM.

And the TGI [53]?
Its TGI is 74.7 µM.

What about the TGI [55] of the same compound?
Its TGI is 31.9 µM.
